# Laboratory results from patent US9073864B2, “Aromatic ring compound” (TAKEDA PHARMACEUTICAL COMPANY LIMITED, priority 2012, dated 2015).
# Molecular target: T1, human type glucagon receptor (Homo sapiens, UniProt P47871)
# T1 construct: an about 1.4 kb DNA fragment containing glucagon receptor gene was recovered from the gel; expressed in transfected cells; host or cells: FreeStyle CHO cells (transient expression); membrane fraction prepared by homogenisation and ultracentrifugation
# Assay: Measurement of glucagon binding inhibitory activity ([125I]-glucagon, receptor membrane protein)
# Details: test compound 10 μM; 0.4% DMSO alone = 0%, unlabeled glucagon 1 μM = 100%; read-out: inhibitory rate (%) at 10 μM
# Protocol: The glucagon binding inhibitory action of the compound of the present invention was evaluated by the following method.
# (1) Cloning of Human Glucagon Receptor Gene
# Human glucagon receptor gene was cloned by PCR reaction using human pancreas Marathon-ready cDNA (Clontech Laboratories, Inc.) as a template and the following primer set.
# The PCR reaction was performed using Advantage 2 polymerase (Clontech Laboratories, Inc.) and according to the attached protocol. The obtained PCR product was subjected to agarose gel (1%) electrophoresis, an about 1.4 kb DNA fragment containing glucagon receptor gene was recovered from the gel, and digested with restriction enzymes EcoRI and NotI. The restriction enzyme-treated DNA was subjected to agarose gel (1%) electrophoresis, an about 1.4 kb DNA fragment was recovered and ligated with plasmid pMSRaneo digested with restriction enzymes EcoRI and NotI to give human type glucagon receptor expression plasmid DNA “pMSRaneo/hGCGR”. The base sequence of the inserted fragment was confirmed to be identical with the object sequence.
# (2) Preparation of Glucagon Receptor Membrane Protein
# Human type glucagon receptor was expressed using FreeStyle CHO Expression System (Invitrogen™). According to the manual attached to the FreeStyle CHO Expression System, and using the human type glucagon receptor expression plasmid DNA “pMSRaneo/hGCGR” produced in the above-mentioned (1), transient expression was performed by FreeStyle CHO cells. The above-mentioned DNA was transfected, and shaking culture was performed at 37° C., 8% CO2, 125 rpm for 2 days. The culture medium was centrifuged at 2,000 rpm for 10 min and the cells were recovered. The recovered cells were washed with PBS, suspended in homogenate buffer [10 mM NaHCO3 (pH 7.4), 1 mM EDTA, complete EDTA-free (Roche, Ltd., 1 tablet/50 ml)], and the cells were disrupted by a Polytron cell disruption apparatus (Kinematica AG). The disruption solution was centrifuged at 2,000 rpm for 10 min, and the supernatant was recovered. The supernatant was centrifuged at 35,000 rpm for 60 min, and the precipitate was suspended in a buffer [20 mM Tris-HCl (pH 7.4), 5 mM EDTA, complete EDTA-free (Roche, Ltd., 1 tablet/50 ml)] to give a glucagon receptor membrane protein.
# (3) Measurement of Glucagon Binding Inhibitory Activity
# The reaction was started by adding 50 μl of a glucagon receptor membrane protein solution diluted with a reaction buffer [50 mM HEPES (pH 7.4), 5 mM EGTA, 5 mM magnesium chloride, 0.1% BSA, 0.005% Tween20] to 100 μg/ml, 25 μl of a test compound solution containing 0.4% DMSO, which solution was prepared with the reaction buffer to a compound concentration of 40 μM, and 25 μl of radiolabeled glucagon ([^125I]-Receptor Grade Glucagon; Perkin Elmer Inc.) diluted with the reaction buffer to 200 pM to each well of a 96 well plate (Corning Incorporated). The plate was stood at room temperature for 90 min, then the reaction solution was transferred from the reaction plate onto a 96 well unifilter GF/C plate (Perkin Elmer Inc.) by a cell harvester (Perkin Elmer Inc.), and suctioned to collect a membrane fraction on the filter. The filter was immersed in a 0.3% polyethyleneimine solution in advance to prevent non-specific adsorption of the labeled ligand. The filter was washed 4 times with the reaction buffer, and dried at 42° C. for 2 hr. To each well was added 25 μl of scintillator (MicroScint0; Perkin Elmer Inc.), and the amount of fluorescence was measured by a microplate scintillation counter (TopCount NXT™; Perkin Elmer Inc.).
# The inhibitory rate (%) of the well added with the test compound (10 μM; containing 0.4% DMSO solution) was calculated wherein the reaction rate of the well added with 0.4% DMSO alone was 0% inhibitory rate and that of the well added with unlabeled glucagon (final concentration 1 μM) was 100% inhibitory rate.
# T1 sequence (P47871 26-477): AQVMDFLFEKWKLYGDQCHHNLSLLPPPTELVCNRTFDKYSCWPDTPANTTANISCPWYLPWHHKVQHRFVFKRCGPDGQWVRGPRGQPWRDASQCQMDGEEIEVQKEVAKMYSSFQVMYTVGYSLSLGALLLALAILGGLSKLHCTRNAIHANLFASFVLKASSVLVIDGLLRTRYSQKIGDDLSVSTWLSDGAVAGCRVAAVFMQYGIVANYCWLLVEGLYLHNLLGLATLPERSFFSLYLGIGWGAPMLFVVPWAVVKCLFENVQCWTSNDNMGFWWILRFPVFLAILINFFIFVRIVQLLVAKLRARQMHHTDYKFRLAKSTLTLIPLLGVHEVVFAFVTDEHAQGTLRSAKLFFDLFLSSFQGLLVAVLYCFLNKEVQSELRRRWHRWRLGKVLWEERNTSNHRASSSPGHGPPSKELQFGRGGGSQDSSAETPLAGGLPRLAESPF
row,inhibition at 10 µM,Structure (SMILES)
1,96%,"Cc1cc(-c2ncc(Cl)cn2)ccc1C(CCC(F)(F)F)Nc1ccc(C(=O)N2CCC[C@@H](C(=O)O)C2)cc1 (mixture of isomers) [Example 12, (3R)-1-(4-((1-(4-(5-chloropyrimidin-2-yl)-2-methylphenyl)-4,4,4-trifluorobutyl)amino)benzoyl)piperidine-3-carboxylic acid]"
2,91%,"Cc1cc(-c2ccc(C#N)cc2)ccc1C(CCC(F)(F)F)Nc1ccc(C(=O)N2CCC[C@@H](C(=O)O)C2)cc1 (stereo partly drawn) [Example 8, (3R)-1-(4-((1-(4′-cyano-3-methylbiphenyl-4-yl)-4,4,4-trifluorobutyl)amino)benzoyl)piperidine-3-carboxylic acid]"
3,88%,"Cc1cc(-c2ccc(C(F)(F)F)cn2)ccc1C(CCC(F)(F)F)Nc1ccc(C(=O)N2CCC[C@@H](C(=O)O)C2)cc1 (mixture of isomers) [Example 10, (3R)-1-(4-((4,4,4-trifluoro-1-(2-methyl-4-(5-(trifluoromethyl)pyridin-2-yl)phenyl)butyl)amino)benzoyl)piperidine-3-carboxylic acid]"
4,84%,"CCc1cnc(-c2ccc(C(CCC(F)(F)F)Nc3ccc(C(=O)N4CCC[C@@H](C(=O)O)C4)cc3)c(C)c2)nc1 (mixture of isomers) [Example 13, (3R)-1-(4-((1-(4-(5-ethylpyrimidin-2-yl)-2-methylphenyl)-4,4,4-trifluorobutyl)amino)benzoyl)piperidine-3-carboxylic acid]"
5,86%,"Cc1cc(C(CCC(F)(F)F)Nc2ccc(C(=O)N3CCC[C@@H](C(=O)O)C3)cc2)cc(C)c1-c1ccc(Cl)cc1 (stereo partly drawn) [Example 18, (3R)-1-(4-((1-(4′-chloro-2,6-dimethylbiphenyl-4-yl)-4,4,4-trifluorobutyl)amino)benzoyl)piperidine-3-carboxylic acid]"
6,90%,"Cc1cc(-n2cc3c(n2)CCCC3)ccc1C(Nc1ccc(C(=O)N2CCC[C@@H](C(=O)O)C2)cc1)C(C)C (stereo partly drawn) [Example 117, (3R)-1-(4-((2-methyl-1-(2-methyl-4-(4,5,6,7-tetrahydro-2H-indazol-2-yl)phenyl)propyl)amino)benzoyl)piperidine-3-carboxylic acid]"
7,90%,"CCc1cnc(-c2ccc(C(Nc3ccc(C(=O)N4CCC[C@@H](C(=O)O)C4)cc3)C(C)C)c(C)c2)nc1 (stereo partly drawn) [Example 112, (3R)-1-(4-((1-(4-(5-ethylpyrimidin-2-yl)-2-methylphenyl)-2-methylpropyl)amino)benzoyl)piperidine-3-carboxylic acid]"
8,92%,"Cc1cc(-c2ccc(Cl)cc2)ccc1C(CCC(F)(F)F)Nc1ccc(C(=O)N2CCC[C@@H](C(=O)O)C2)cn1 (stereo partly drawn) [Example 15, (3R)-1-((6-((1-(4′-chloro-3-methylbiphenyl-4-yl)-4,4,4-trifluorobutyl)amino)pyridin-3-yl)carbonyl)piperidine-3-carboxylic acid]"
9,91%,"COc1ccc(-c2ccc(C(CCC(F)(F)F)Nc3ccc(C(=O)N4CCC[C@@H](C(=O)O)C4)cc3)c(C)c2)cc1 (stereo partly drawn) [Example 7, (3R)-1-(4-((4,4,4-trifluoro-1-(4′-methoxy-3-methylbiphenyl-4-yl)butyl)amino)benzoyl)piperidine-3-carboxylic acid]"
10,90%,"Cc1cc(-n2cc3c(n2)CCCC3)ccc1C(Nc1ccc(C(=O)N2CCC[C@@H](C(=O)O)C2)cc1)C(C)C (mixture of isomers) [Example 116, (3R)-1-(4-((2-methyl-1-(2-methyl-4-(4,5,6,7-tetrahydro-2H-indazol-2-yl)phenyl)propyl)amino)benzoyl)piperidine-3-carboxylic acid]"
11,93%,"Cc1cc(-c2ncc(C(F)(F)F)cn2)ccc1C(CCC(F)(F)F)Nc1ccc(C(=O)N2CCC[C@@H](C(=O)O)C2)cc1 (mixture of isomers) [Example 11, (3R)-1-(4-((4,4,4-trifluoro-1-(2-methyl-4-(5-(trifluoromethyl)pyrimidin-2-yl)phenyl)butyl)amino)benzoyl)piperidine-3-carboxylic acid]"
12,93%,"Cc1cc(-n2cc3c(n2)CCCC3)ccc1C(CCC(F)(F)F)Nc1ccc(C(=O)N2CCC[C@@H](C(=O)O)C2)cc1 (mixture of isomers) [Example 20, (3R)-1-(4-((4,4,4-trifluoro-1-(2-methyl-4-(4,5,6,7-tetrahydro-2H-indazol-2-yl)phenyl)butyl)amino)benzoyl)piperidine-3-carboxylic acid]"
13,88%,"Cc1cc(-c2ccc(C(F)(F)F)nc2)ccc1C(CCC(F)(F)F)Nc1ccc(C(=O)N2CCC[C@@H](C(=O)O)C2)cc1 (stereo partly drawn) [Example 14, (3R)-1-(4-((4,4,4-trifluoro-1-(2-methyl-4-(6-(trifluoromethyl)pyridin-3-yl)phenyl)butyl)amino)benzoyl)piperidine-3-carboxylic acid]"
14,86%,"Cc1cc(-c2ccc(F)cc2)ccc1C(CCC(F)(F)F)Nc1ccc(C(=O)N2CCC[C@@H](C(=O)O)C2)cc1 (stereo partly drawn) [Example 5, (3R)-1-(4-((4,4,4-trifluoro-1-(4′-fluoro-3-methylbiphenyl-4-yl)butyl)amino)benzoyl)piperidine-3-carboxylic acid]"
15,92%,"Cc1cc(-c2ccc(Cl)cc2)ccc1C(Nc1ccc(C(=O)N2CCC[C@@H](C(=O)O)C2)cn1)C1CCCCC1 (stereo partly drawn) [Example 17, (3R)-1-((6-(((4′-chloro-3-methylbiphenyl-4-yl)(cyclohexyl)methyl)amino)pyridin-3-yl)carbonyl)piperidine-3-carboxylic acid]"
16,87%,"Cc1cc(-n2ccc(C(C)C)n2)ccc1C(CCC(F)(F)F)Nc1ccc(C(=O)N2CCC[C@@H](C(=O)O)C2)cc1 (mixture of isomers) [Example 19, (3R)-1-(4-((4,4,4-trifluoro-1-(4-(3-isopropyl-1H-pyrazol-1-yl)-2-methylphenyl)butyl)amino)benzoyl)piperidine-3-carboxylic acid]"
17,84%,"O=C(O)[C@@H]1CCCN(C(=O)c2ccc(NC(c3ccc(-c4ccc(Cl)cc4)cc3)C3CCCCC3)cc2)C1 (stereo partly drawn) [Example 24, (3R)-1-(4-(((4′-chlorobiphenyl-4-yl)(cyclohexyl)methyl)amino)benzoyl)piperidine-3-carboxylic acid]"
18,90%,"Cc1cc(-c2ccc(C(F)(F)F)nc2)ccc1C(CCC(F)(F)F)Nc1ccc(C(=O)N2CCC[C@@H](C(=O)O)C2)cc1 (mixture of isomers) [Example 9, (3R)-1-(4-((4,4,4-trifluoro-1-(2-methyl-4-(6-(trifluoromethyl)pyridin-3-yl)phenyl)butyl)amino)benzoyl)piperidine-3-carboxylic acid]"
19,89%,"Cc1cc(-n2ccc(C(C)C)n2)ccc1C(CCC(F)(F)F)Nc1ccc(C(=O)N2CCC[C@@H](C(=O)O)C2)cc1 (stereo partly drawn) [Example 22, (3R)-1-(4-((4,4,4-trifluoro-1-(4-(3-isopropyl-1H-pyrazol-1-yl)-2-methylphenyl)butyl)amino)benzoyl)piperidine-3-carboxylic acid]"
20,85%,"Cc1cc(-c2ccc(F)cc2)ccc1C(CCC(F)(F)F)Nc1ccc(C(=O)N2CCC[C@@H](C(=O)O)C2)cn1 (stereo partly drawn) [Example 6, (3R)-1-((6-((4,4,4-trifluoro-1-(4′-fluoro-3-methylbiphenyl-4-yl)butyl)amino)pyridin-3-yl)carbonyl)piperidine-3-carboxylic acid]"
21,71%,"O=C(O)[C@@H]1CCCN(C(=O)c2ccc(NC(CCC(F)(F)F)c3ccc(-c4ccccc4)cn3)cc2)C1 (stereo partly drawn) [Example 25, (3R)-1-(4-((4,4,4-trifluoro-1-(5-phenylpyridin-2-yl)butyl)amino)benzoyl)piperidine-3-carboxylic acid]"
